Measurements published in US5882851A, “Cytochrome P-450 monooxygenases” (Novartis Finance Corporation, priority 1993, dated 1999).

Target: T1, cytochrome P-450TYR (Sorghum bicolor, UniProt Q43135)
T1 construct: from tissue; host or cells: microsomes of etiolated Sorghum bicolor seedlings, solubilised and purified by dye columns
T1 sequence (Q43135 1-558): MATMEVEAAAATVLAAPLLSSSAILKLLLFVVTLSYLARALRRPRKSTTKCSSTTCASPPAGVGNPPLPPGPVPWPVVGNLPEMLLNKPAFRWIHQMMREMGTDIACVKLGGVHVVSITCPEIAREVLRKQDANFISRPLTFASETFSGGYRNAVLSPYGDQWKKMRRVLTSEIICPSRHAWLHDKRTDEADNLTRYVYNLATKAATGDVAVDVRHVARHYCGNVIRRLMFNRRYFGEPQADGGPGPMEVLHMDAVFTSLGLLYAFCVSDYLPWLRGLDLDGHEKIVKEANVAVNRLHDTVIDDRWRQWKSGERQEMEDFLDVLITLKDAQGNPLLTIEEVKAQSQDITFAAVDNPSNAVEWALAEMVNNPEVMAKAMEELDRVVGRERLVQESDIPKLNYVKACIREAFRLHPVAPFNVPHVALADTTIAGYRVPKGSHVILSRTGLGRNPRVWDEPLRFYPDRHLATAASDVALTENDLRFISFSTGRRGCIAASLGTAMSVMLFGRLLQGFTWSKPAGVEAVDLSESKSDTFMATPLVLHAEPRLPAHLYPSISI
Assay: Substrate binding spectra of isolated sorghum cytochrome P-450TYR (difference spectrum A390-420)
Experimental: Cytochrome P-450 substrate binding spectra are recorded with stepwise increased substrate concentration until saturating conditions are reached.
Cytochrome P-450TYR in the oxidized state has a strong absorption peak at 420 nm, representing the low spin state of the iron of the heme group. The binding of a ligand to the heme group shifts the absorption maximum by changing the spin state of the iron. […] The following experimental procedure is used to obtain the substrate binding spectrum: two identical cuvettes containing a buffered solution of the isolated cytochrome P-450 are prepared. The substrate of the enzyme is added to the sample cuvette whereas the same volume of buffer is added to the other cuvette. The difference spectrum is then recorded in an SLM-Aminco DW2c spectrophotometer. The absorption difference, A390-420, is proportional to the concentration of cytochrome P-450TYR with a bound substrate at its active site. If a saturating concentration of substrate is added to the sample cuvette, the absorption difference is proportional to the concentration of the substrate specific cytochrome P-450 in the cuvettes. The saturating concentration of the substrate is determined by titrating the cytochrome P-450 sample with increasing amounts of substrate and monitoring A390-420.
If a cytochrome P-450 sample can be saturated with two different substrates, there may be two different cytochrome P-450 enzymes in the sample, or there may be one cytochrome P-450 enzyme able to bind to both substrates. To discriminate between these possibilities, saturating amounts of the two substrates are added sequentially and the A390-420absorption change is monitored. If, independent of the order of addition, the addition of the second sample gives rise to an increased A390-420value compared to the value after the addition of the first substrate, the two substrates are bound by different enzymes. If A390-420 remains unchanged upon addition of the second substrate, independent of the order of addition, both substrates bind to the same active site, i.e. to the same cytochrome P-450 enzyme.

SMILES: N[C@@H](Cc1ccc(O)cc1)C(=O)O [tyrosine, L-tyrosine]
- initial A390-420 (30 μl 5 mM tyrosine added to 500 μl P-450TYR): 0,0437
- resulting A390-420 (30 μl 5 mM tyrosine, dilution factor 530/500): 0,0463
- initial A390-420 (60 μl 5 mM tyrosine): 0,0496
- resulting A390-420 (60 μl 5 mM tyrosine, dilution factor 560/500): 0,0556
- initial A390-420 (90 μl 5 mM tyrosine): 0,0486
- resulting A390-420 (90 μl 5 mM tyrosine, dilution factor 590/500): 0,0573
- type of substrate binding spectrum (isolated sorghum P-450TYR): type I binding spectrum
